Measured values taken from patent US9980927B2, “Use of tapentadol for inhibiting and/or treating depression and anxiety” (Gruenenthal GmbH, priority 2011, dated 2018).

System: patients with inadequately managed, severe chronic low back pain with or without a neuropathic pain component
Assay: Hospital Anxiety and Depression Scale (HADS) anxiety score; open-label phase IIIb trial, tapentadol prolonged release 50-250 mg bid for up to 12 weeks
Assay type: in vivo, human patients
Details: for HADS anxiety score, course: Baseline to Week 12
Description: As used herein, the “anxiety score” is a value determining the degree of the […]. The scale of anxiety scores covers the range from 0 to 21, wherein the degree of the anxiety is high in case of high values and low in case of low values. In a group of tested subjects, typically the mean or mediate values of anxiety scores are determined and referred to. The mean value is the sum of all anxiety scores divided by the number of subjects. The mediate value is the middle anxiety score in the set of determined scores. Preferably, the “anxiety score” is defined as in the experimental section.
A subgroup suffering from neuropathic pain due to lumbar radiculopathy was also investigated.
This was a multicenter, multinational, open-label, effectiveness phase IIIb trial to evaluate effectiveness and safety of tapentadol prolonged release treatment in patients with inadequately managed, severe chronic low back pain with or without a neuropathic pain component. Patients taking WHO Step II analgesics discontinued those analgesics before starting study medication; patients taking Step I analgesics and/or centrally acting co-analgesics continued on the same dose. […] All patients received tapentadol prolonged release (50-250 mg bid) for up to 12 weeks (5-week titration period and a 7-week maintenance period). Tapentadol immediate release (IR) 50 mg (twice a day, hours apart) was permitted (combined total daily dose of tapentadol prolonged release and tapentadol IR, 500 mg/day). The primary efficacy endpoint was the change from Baseline to Week 6 (when tapentadol prolonged release doses were stable) in average pain intensity on the 11-point NRS-3 using the last observation carried forward (LOCF) for imputing missing scores. The painDETECT questionnaire was used to evaluate the likelihood of a neuropathic pain component of low back pain; patients were classified as painDETECT “negative,” “unclear,” or “positive.” The population of patients classified as painDETECT negative was limited to approximately 30% of the total population.
In the painDETECT positive trial population the “diagnosis of lumbar radiculopathy” was evaluated which was defined per study protocol according following criteria: • typical dermatomal pain (radiating beyond the knee towards the foot, pain evoked by stretching within distribution of the ischiadic/femoral nerve) • signs of root dysfunction: • such as sensory impairment, motor symptoms from compression of lumbar nerve root (L4, L5, S1). • and/or absent or diminished quadriceps femoris or triceps surae reflexes. • and/or quantitative sensory testing (QST) deficit and pain distribution present in the same dermatomal area.
All subjects completed Short Form-36 (SF-36) and EuroQol-5 Dimension (EQ-5D) questionnaires and the Hospital Anxiety and Depression Scale (HADS). The Patient Global Impression of Change (PGIC) and Clinical global impression of change (CGIC) were also used as secondary endpoints. For both tests, patients completed the statement, “since I began trial treatment, I would rate my overall condition as,” using 7 possible responses (“very much worse” to “very much improved”). Adverse events were recorded throughout the trial.
In the following • (i) N is the number of subjects of the specified diagnosis group, • (ii) n is the number of subjects with data available, • (iii) “Mean” is the mean score of the subjects, i.e. the sum of all scores is divided by the number of subjects, • (iv) SD is the standard deviation, • (v) “Median” is the median score of the subjects, i.e. the middle score in the set of scores, • (vi) “Range” is the range of scores of the subjects, i.e. the range defined by the lowest and the highest score of the set of scores. First, the depression scores are presented. The total number of subjects in the clinical study: N=175

[1] = Visit 1, defined neuropathic pain N=85
[2] = Visit 1, positive diagnosis of lumbar radiculopathy-neuropathic pain subset N=44
[3] = Visit 1, presumed neuropathic pain component N=41
[4] = Visit 1, presumed or defined neuropathic pain component N=126
[5] = Visit 1, subjects with nociceptive pain N=49
[6] = Visit 5, defined neuropathic pain N=85
[7] = Visit 5, positive diagnosis of lumbar radiculopathy-neuropathic pain subset N=44
[8] = Visit 5, presumed neuropathic pain component N=41
[9] = Visit 5, presumed or defined neuropathic pain component N=126
[10] = Visit 5, subjects with nociceptive pain N=49
[11] = Visit 6, defined neuropathic pain N=85
[12] = Visit 6, positive diagnosis of lumbar radiculopathy-neuropathic pain subset N=44
[13] = Visit 6, presumed neuropathic pain component N=41
[14] = Visit 6, presumed or defined neuropathic
[15] = Visit 6, presumed or defined neuropathic pain component N=126
[16] = Visit 6, subjects with nociceptive pain N=49
[17] = Visit 7, defined neuropathic pain N=85
[18] = Visit 7, positive diagnosis of lumbar radiculopathy-neuropathic pain subset N=44
[19] = Visit 7, presumed neuropathic pain component N=41
[20] = Visit 7, presumed or defined neuropathic pain component N=126
[21] = Visit 7, subjects with nociceptive pain N=49
[22] = Visit 8, defined neuropathic pain N=85

CC[C@@H](c1cccc(O)c1)[C@@H](C)CN(C)C [tapentadol, (−)-(1R,2R)-3-(3-dimethylamino-1-ethyl-2-methyl-propyl)-phenol]
HADS anxiety score, course (painDETECT negative): not significantly | HADS anxiety score, course (painDETECT unclear/positive, P<0.0001 at Visit 12): improved steadily | HADS anxiety score, course (positive diagnosis of lumbar radiculopathy-neuropathic pain subset, p=0.0105 at Visit 12): improved steadily | Anxiety score Mean (SD) [1]: 8.3 (4.01) | Anxiety score Median [1]: 8.0 | Anxiety score Mean (SD) [2]: 8.7 (3.64) | Anxiety score Median [2]: 9.0 | Anxiety score Mean (SD) [3]: 7.9 (4.52) | Anxiety score Median [3]: 7.0 | Anxiety score Mean (SD) [4]: 8.2 (4.16) | Anxiety score Median [4]: 8.0 | Anxiety score Mean (SD) [5]: 5.9 (4.19) | Anxiety score Median [5]: 6.0 | Anxiety score Mean (SD) (Visit 1, total subjects N=175): 7.6 (4.28) | Anxiety score Median (Visit 1, total subjects N=175): 7.0 | Anxiety score Mean (SD) [6]: 7.2 (3.89) | Anxiety score Median [6]: 8.0 | Anxiety score Mean (SD) [7]: 6.8 (3.39) | Anxiety score Median [7]: 7.5 | Anxiety score Mean (SD) [8]: 6.7 (4.22) | Anxiety score Median [8]: 7.0 | Anxiety score Mean (SD) [9]: 7.0 (3.98) | Anxiety score Median [9]: 7.0 | Anxiety score Mean (SD) [10]: 6.1 (3.80) | Anxiety score Median [10]: 5.0 | Anxiety score Mean (SD) (Visit 5, total subjects N=175): 6.8 (3.94) | Anxiety score Median (Visit 5, total subjects N=175): 7.0 | Anxiety score change from baseline Mean (SD) (Visit 6): −1.6 (3.58) | Anxiety score change from baseline Median (Visit 6): −1.0 | Anxiety score change from baseline Mean (SD) (Visit 6, defined neuropathic): −1.4 (3.44) | Anxiety score change from baseline Median (Visit 6, defined neuropathic): −1.0 | Anxiety score Mean (SD) [11]: 6.9 (3.66) | Anxiety score Median [11]: 6.0 | Anxiety score change from baseline Mean (SD) (Visit 6, lumbar radiculopathy): −1.4 (3.88) | Anxiety score change from baseline Median (Visit 6, lumbar radiculopathy): −0.5 | Anxiety score change from baseline Mean (SD) (Visit 6, nociceptive): −0.3 (2.93) | Anxiety score change from baseline Median (Visit 6, nociceptive): 0.0 | Anxiety score Mean (SD) [12]: 7.1 (3.46) | Anxiety score Median [12]: 7.5 | Anxiety score Mean (SD) [13]: 6.9 (3.99) | Anxiety score Median [13]: 6.0 | Anxiety score change from baseline Mean (SD) [14]: −1.5 (3.47) | Anxiety score change from baseline Median [14]: −1.0 | Anxiety score Mean (SD) [15]: 6.9 (3.75) | Anxiety score Median [15]: 6.0 | Anxiety score Mean (SD) [16]: 5.8 (4.68) | Anxiety score Median [16]: 5.0 | Anxiety score change from baseline Mean (SD) (Visit 6, total): −1.2 (3.36) | Anxiety score change from baseline Median (Visit 6, total): −1.0 | Anxiety score Mean (SD) (Visit 6, total subjects N=175): 6.6 (4.02) | Anxiety score Median (Visit 6, total subjects N=175): 6.0 | Anxiety score Mean (SD) [17]: 6.1 (3.91) | Anxiety score Median [17]: 6.0 | Anxiety score Mean (SD) [18]: 6.1 (3.85) | Anxiety score Median [18]: 6.0 | Anxiety score Mean (SD) [19]: 5.9 (4.08) | Anxiety score Median [19]: 5.5 | Anxiety score Mean (SD) [20]: 6.0 (3.95) | Anxiety score Median [20]: 6.0 | Anxiety score Mean (SD) [21]: 5.6 (4.15) | Anxiety score Median [21]: 5.0 | Anxiety score Mean (SD) (Visit 7, total subjects N=175): 5.9 (3.99) | Anxiety score Median (Visit 7, total subjects N=175): 6.0 | Anxiety score change from baseline Mean (SD) (Visit 8): −2.9 (3.11) | Anxiety score change from baseline Median (Visit 8): −2.0 | Anxiety score change from baseline Mean (SD) (Visit 8, defined neuropathic): −2.2 (3.77) | Anxiety score change from baseline Median (Visit 8, defined neuropathic): −2.0 | Anxiety score Mean (SD) [22]: 6.0 (3.66) | Anxiety score Median [22]: 5.0 | Anxiety score change from baseline Mean (SD) (Visit 8, lumbar radiculopathy): −2.4 (4.23) | Anxiety score change from baseline Median (Visit 8, lumbar radiculopathy): −1.0 | Anxiety score change from baseline Mean (SD) (Visit 8, nociceptive): −0.7 (3.88) | Anxiety score change from baseline Median (Visit 8, nociceptive): −1.0 | Anxiety score Mean (SD) (Visit 8, positive diagnosis of lumbar radiculopathy-neuropathic pain subset N=44): 5.9 (3.74)
